Data from paper PMC6268546, “A PAMPA Assay as Fast Predictive Model of Passive Human Skin Permeability of New Synthesized Corticosteroid C-21 Esters” (Molecules, 2012).

What was measured:
[1] = approximate logKp (permeability coefficient through human skin) calculated from logPe by equation (1); details: logKp = 1.34 logPe + 0.28, from PAMPA logPe
Excerpt: Ottaviani and coworkers predicted skin permeation of numerous compounds applying a new membrane (70% silicone oil and 30% IPM) in the PAMPA test and presented permeate classifications on the basis of available literature permeability coefficients through human skin, logKp.
The proposed equation for correlation between logKp and logPe for 31 investigated compounds was: […]

[2] = set-up: method as in PMID 16789751; details: 70% silicone-30% IPM membrane, 7 h; cited from earlier work
[3] = PAMPA test (skin permeability model); details: 70% silicone oil-30% IPM membrane, 7 h incubation, 100 μM in 5% DMSO phosphate buffer pH 7, triplicate mean
Method: The study was performed in triplicate and the results are presented as mean values. After the PAMPA tests was performed, a HPLC method was used to measure the concentrations of the investigated corticosteroids: the initial concentration–CD(0) in the starting solution, the residual concentration–CD(t) in the donor compartment (7 h after incubation) and the transferred concentration–CA(t) in the acceptor compartment (7 h after incubation). The assay was performed using the previously described HPLC method with mobile phase modification for determination of standard corticosteroids. The mobile phase modification was introduced to achieve complete separation standard corticosteroids peak from DMSO peak, which was used as cosolvent. DMSO was used as cosolvent with the aim of increasing the corticosteroid C-21 esters’ solubility. DMSO is one of the earliest and most widely studied penetration enhancers for transdermal drug delivery systems.
On the basis of the initial (100 μM) and calculated residual and transferred concentrations according to peak area comparison at zero time t0, the retention factors–R and permeability coefficients–logPe of investigated corticosteroids were obtained.
Phosphate buffer (pH = 7) was prepared by dissolving NaH2PO4·H2O (1.167 g) and Na2HPO4·7H2O (3.093 g) in water (1000 mL) with the fixed total concentration of 20 mM. The 5% DMSO solution were prepared dissolving DMSO in phosphate buffer. The corticosteroid solutions were prepared dissolving the investigated corticosteroid standards as well as new synthesized corticosteroid C-21 esters in 5% DMSO solution. […] An aliquot of previously prepared mixture (3.5 mL, 7 mL silicone oil and 3 mL IPM) was transferred into a 10 mL volumetric flask, dissolved and fill up to mark with n-hexane.
Permeation experiments were carried out in hydrophobic PVDF 96-well filter plates (Millipore, Molsheim, France). […] Next, in each well of acceptor plate, 5% DMSO solution (400 μL) was transferred with an automatic pipette and covered by the donor plate, creating a PAMPA sandwich. In each well of the donor plate solutions of the tested corticosteroid in 5% DMSO solution (100 μM, 300 μL) was transferred by the use of an automatic pipette. Each substance was measured in triplicate at iso-pH conditions (the same pH value in donor and receptor compartment). The donor plate was covered to prevent evaporation and the whole system set up to interact with the vibratory mixer. After 7 h, PAMPA sandwich was removed from the mixer and vibration, and using the HPLC method the concentration of the investigated substances in the donor and receptor compartments were determined. The HPLC method used was as previously described but with some necessary modifications. A mobile phase of methanol–water (75:25 v/v) was used for analysis of corticosteroid C-21 esters, while the mobile phase methanol–water (50:50 v/v) was used for the analysis of unesterified corticosteroids to increase their retention time and prevent overlapping with the DMSO peak. Other HPLC parameters were as previously described. The concentrations of each tested corticosteroid in the appropriate time interval in the donor and acceptor compartments were calculated using the method of comparing the peak area of the initial concentration at zero time t0.
The values of permeability coefficients–logPe and retention factors–R of examined corticosteroids were calculated using equations (2) and (3). The retention factor, R can be defined as the mole fraction retained in the membrane and in the microplates (i.e., filters and plate materials): [drawing 1] (2) where CA(t)/CD(0) represents the amount of compound that reached the acceptor compartment after incubation time t (for VA = VD): […]

Compound: C[C@@H]1C[C@H]2[C@@H]3CCC4=CC(=O)C=C[C@]4(C)[C@@]3(F)[C@@H](O)C[C@]2(C)[C@@]1(O)C(=O)CO [DEX, dexamethasone, reference compound]
- logKp (approximate, calculated) [1]: −7.75
- logPe previously reported [2]: −5.75
- permeation parameter CA(t)/CD(0) [3]: 1.3 ± 0.8%
- retention factor R (membrane retention) [3]: 4.2 ± 2.0%
